From article PMC6934184, “Selective DNA-PKcs inhibition extends the therapeutic index of localized radiotherapy and chemotherapy” (The Journal of Clinical Investigation, 2019)

Biological target: T1, EPHA2 (Homo sapiens, UniProt P29317)
T1 construct: purchased Thermo Fisher Scientific (Life Technologies) SelectScreen
Assay: SelectScreen Z'LYTE
Type: biochemical
How it was run: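 Percent values come from Thermo SelectScreen profiling of NU5455, combining activity and binding assays. CSF1R was run in Z'LYTE format at Km app ATP, and CAMK1 in Adapta format with ATP listed at 10.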

T1 sequence (P29317 24-976): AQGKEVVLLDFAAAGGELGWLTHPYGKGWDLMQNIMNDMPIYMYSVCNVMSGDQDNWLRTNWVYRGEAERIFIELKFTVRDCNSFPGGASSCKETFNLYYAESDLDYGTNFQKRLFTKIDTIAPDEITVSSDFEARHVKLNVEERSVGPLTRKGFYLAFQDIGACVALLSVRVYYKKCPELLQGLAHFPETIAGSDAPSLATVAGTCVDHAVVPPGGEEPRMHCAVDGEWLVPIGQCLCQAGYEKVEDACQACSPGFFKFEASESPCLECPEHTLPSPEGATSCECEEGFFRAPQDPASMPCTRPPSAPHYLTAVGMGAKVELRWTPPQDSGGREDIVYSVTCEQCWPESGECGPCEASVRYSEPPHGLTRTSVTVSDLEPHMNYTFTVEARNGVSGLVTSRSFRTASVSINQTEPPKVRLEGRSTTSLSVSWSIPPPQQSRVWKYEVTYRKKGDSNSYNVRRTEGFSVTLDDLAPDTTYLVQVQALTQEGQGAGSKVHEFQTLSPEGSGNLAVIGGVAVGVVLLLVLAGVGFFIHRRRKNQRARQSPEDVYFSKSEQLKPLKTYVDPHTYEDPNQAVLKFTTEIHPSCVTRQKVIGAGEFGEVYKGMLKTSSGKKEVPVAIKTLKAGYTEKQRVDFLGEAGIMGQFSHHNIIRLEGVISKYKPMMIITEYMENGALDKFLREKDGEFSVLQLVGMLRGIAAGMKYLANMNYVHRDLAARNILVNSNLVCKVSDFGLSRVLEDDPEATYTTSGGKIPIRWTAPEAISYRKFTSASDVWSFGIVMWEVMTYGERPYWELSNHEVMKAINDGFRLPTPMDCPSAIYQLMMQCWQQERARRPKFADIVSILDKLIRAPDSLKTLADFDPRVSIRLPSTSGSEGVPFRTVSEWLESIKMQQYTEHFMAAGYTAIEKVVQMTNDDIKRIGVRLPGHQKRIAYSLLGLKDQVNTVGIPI

`CN(C(=O)CN1CCOCC1)c1ccc2sc3c(-c4cccc5c(=O)cc(N6CC7CCC(C6)O7)oc45)cccc3c2c1` [NU5455] showed an inhibition at 1 µM of 4.8%.
